Assays:
[1] = biological target: T1, Human rhinovirus A protease (Human rhinovirus sp.) (UniProt Q4U254); assay: Binding affinity on human Rhinovirus 3C protease (rhinovirus serotype 14)
T1 sequence (whole entry): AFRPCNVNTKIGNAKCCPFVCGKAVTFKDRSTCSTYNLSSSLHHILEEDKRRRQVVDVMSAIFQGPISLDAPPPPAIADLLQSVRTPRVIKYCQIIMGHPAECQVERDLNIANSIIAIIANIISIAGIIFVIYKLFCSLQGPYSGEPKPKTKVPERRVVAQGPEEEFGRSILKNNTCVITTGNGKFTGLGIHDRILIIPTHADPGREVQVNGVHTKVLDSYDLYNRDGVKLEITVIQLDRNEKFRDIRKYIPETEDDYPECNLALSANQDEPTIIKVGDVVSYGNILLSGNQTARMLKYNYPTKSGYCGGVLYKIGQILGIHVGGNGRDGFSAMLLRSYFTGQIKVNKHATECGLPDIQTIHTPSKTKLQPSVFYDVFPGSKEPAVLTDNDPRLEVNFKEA

[2] = test system: rhinovirus B14; assay: Cytotoxic activity against HRV-14 in cell culture; type: functional, rhinovirus 14; conditions: Rhinovirus B
[3] = test system: rhinovirus B14; assay: Antiviral activity against HRV-14 in cell culture; type: functional, organism-based; conditions: Rhinovirus B

Row | SMILES | K obs / 1 [1] | CC50 [2] | EC50 [3]
1 | CCOC(=O)/C=C/[C@H](CCC(N)=O)NC(=O)[C@H](Cc1ccccc1)NC(=O)[C@H](CSC)NC(=O)OCc1ccccc1 | 35200 M⁻¹ s⁻¹ | > 100 µM | 0.18 µM
2 | CCOC(=O)/C=C/[C@H](CCS(C)(=O)=O)NC(=O)[C@H](Cc1ccccc1)NC(=O)[C@H](CC(C)C)NC(=O)OCc1ccccc1 | 60 M⁻¹ s⁻¹ | > 100 µM | > 100 µM
3 | CCOC(=O)/C=C/[C@H](CCC(N)=O)NC(=O)[C@H](Cc1ccccc1)NC(=O)[C@H](CC(C)C)NC(=O)c1ccc(Oc2ccccc2)cc1 | 8000 M⁻¹ s⁻¹ | > 320 µM | 5.2 µM
4 | CCOC(=O)/C=C/[C@H](CC[S+](C)[O-])NC(=O)[C@H](Cc1ccccc1)NC(=O)[C@H](CC(C)C)NC(=O)OCc1ccccc1 (stereo partly specified) | 2200 M⁻¹ s⁻¹ | > 100 µM | 1.6 µM
5 | CCOC(=O)/C=C/[C@H](CCC(N)=O)NC(=O)[C@H](Cc1ccccc1)NC(=O)[C@H](CC(C)C)NC(=O)C(C)(C)C | 8200 M⁻¹ s⁻¹ | > 100 µM | 1.8 µM
6 | CCOC(=O)/C=C/[C@H](CNC(C)=O)NC(=O)[C@H](Cc1ccccc1)NC(=O)[C@H](CC(C)C)NC(=O)OCc1ccccc1 | 800 M⁻¹ s⁻¹ | > 320 µM | 2.2 µM
7 | CCOC(=O)/C=C/[C@H](CCC(N)=O)NC(=O)[C@H](Cc1ccccc1)NC(=O)[C@@H](NC(=O)OCc1ccccc1)C(C)C | 62500 M⁻¹ s⁻¹ | > 320 µM | 0.38 µM
8 | CCOC(=O)/C=C/[C@H](CCC(N)=O)NC(=O)[C@H](Cc1ccccc1)NC(=O)[C@@H](NC(=O)OCc1ccccc1)C(C)(C)C | 39800 M⁻¹ s⁻¹ | 178 µM | 0.32 µM
9 | CCOC(=O)/C=C/[C@H](CCC(N)=O)NC(=O)[C@H](Cc1ccccc1)NC(=O)OCc1ccccc1 | 400 M⁻¹ s⁻¹ | > 100 µM | 5.6 µM
10 | CCOC(=O)/C=C/[C@H](CCC(=O)N(C)C)NC(=O)[C@H](Cc1ccccc1)NC(=O)[C@H](CC(C)C)NC(=O)OCc1ccccc1 | 60 M⁻¹ s⁻¹ | > 100 µM | 4 µM
11 | CCOC(=O)/C=C/[C@H](CCC(N)=O)NC(=O)[C@H](Cc1ccccc1)NC(=O)[C@H](CCCN1CCOCC1)NC(=O)OCc1ccccc1 | 43300 M⁻¹ s⁻¹ | > 100 µM | 7.1 µM
12 | CCOC(=O)/C=C/[C@H](CCC(N)=O)NC(=O)[C@H](Cc1ccccc1)NC(=O)[C@H](CCSC)NC(=O)OCc1ccccc1 | 46200 M⁻¹ s⁻¹ | > 100 µM | 1.4 µM
13 | CCOC(=O)/C=C/[C@H](CCC(N)=O)NC(=O)[C@H](Cc1ccccc1)NC(=O)[C@H](CC(C)C)NC(=O)NCc1ccccc1 | 6900 M⁻¹ s⁻¹ | > 100 µM | > 100 µM
14 | CCOC(=O)/C=C/[C@H](CCC(N)=O)NC(=O)[C@H](Cc1ccccc1)NC(=O)[C@@H](NC(=O)OCc1ccccc1)c1ccccc1 | 20700 M⁻¹ s⁻¹ | – | –
15 | CCOC(=O)/C=C/[C@H](CCC(N)=O)NC(=O)[C@H](Cc1ccccc1)NC(=O)[C@H](CSc1ccccc1)NC(=O)OCc1ccccc1 | 141000 M⁻¹ s⁻¹ | > 320 µM | 0.12 µM
16 | CCOC(=O)/C=C/[C@H](CCC(N)=O)NC(=O)[C@H](Cc1ccccc1)NC(=O)[C@H](CC(C)C)NC(=O)CO | 2100 M⁻¹ s⁻¹ | > 320 µM | 30 µM
17 | CCOC(=O)/C=C/[C@H](CCC(N)=O)NC(=O)[C@H](Cc1nccn1C)NC(=O)[C@H](CC(C)C)NC(=O)OCc1ccccc1 | 8900 M⁻¹ s⁻¹ | > 320 µM | 10 µM
18 | CCOC(=O)/C=C/[C@H](CCC(N)=O)NC(=O)[C@H](Cc1ccccc1)NC(=O)[C@H](Cc1ccccc1)NC(=O)OCc1ccccc1 | 162000 M⁻¹ s⁻¹ | > 320 µM | 0.56 µM
19 | CCOC(=O)/C=C/[C@H](CCC(N)=O)NC(=O)[C@H](Cc1ccccc1)NC(=O)[C@H](CC(C)C)NC(=O)OCc1ccccc1C | 41800 M⁻¹ s⁻¹ | > 100 µM | 1 µM
20 | CCOC(=O)/C=C/[C@H](CCC(N)=O)NC(=O)[C@H](Cc1ccc(OC(C)=O)cc1)NC(=O)[C@H](CC(C)C)NC(=O)OCc1ccccc1 | 1200 M⁻¹ s⁻¹ | > 320 µM | 11 µM
21 | CCOC(=O)/C=C/[C@H](CCC(N)=O)NC(=O)[C@H](Cc1ccc(C(N)=O)cc1)NC(=O)[C@H](CC(C)C)NC(=O)OCc1ccccc1 | 9600 M⁻¹ s⁻¹ | 177 µM | > 177 µM
22 | CCOC(=O)/C=C/[C@H](CCC(N)=O)NC(=O)[C@H](C)NC(=O)[C@H](CC(C)C)NC(=O)OCc1ccccc1 | 1300 M⁻¹ s⁻¹ | > 320 µM | 20 µM
23 | CCOC(=O)/C=C/[C@H](CCC(N)=O)NC(=O)[C@H](Cc1ccccc1)NC(=O)[C@H](CCN1CCOCC1)NC(=O)OCc1ccccc1 | 35000 M⁻¹ s⁻¹ | > 100 µM | 5.1 µM
24 | CCOC(=O)/C=C/[C@H](CCC(N)=O)NC(=O)[C@H](Cc1ccccc1)NC(=O)[C@@H](NC(=O)OCc1ccccc1)[C@H](C)O | 38900 M⁻¹ s⁻¹ | > 320 µM | 1.8 µM

Row | SMILES | K obs / 1 [1] | CC50 [2] | EC50 [3]
25 | CCOC(=O)/C=C/[C@H](CCC(N)=O)NC(=O)[C@H](Cc1ccc(O)cc1)NC(=O)[C@H](CC(C)C)NC(=O)OCc1ccccc1 | 11300 M⁻¹ s⁻¹ | > 320 µM | 5.3 µM
26 | CCOC(=O)/C=C/[C@H](CCC(N)=O)NC(=O)[C@H](Cc1ccccc1)NC(=O)[C@H](CCc1ccccc1)NC(=O)OCc1ccccc1 | 57000 M⁻¹ s⁻¹ | > 320 µM | 0.25 µM
27 | CCOC(=O)/C=C/[C@H](CCC(N)=O)NC(=O)[C@H](Cc1ccccc1)NC(=O)[C@H](CC(C)C)NC(=O)[C@H](C)NC(C)=O | 43400 M⁻¹ s⁻¹ | > 100 µM | 20 µM
28 | CCOC(=O)/C=C/[C@H](CCC(N)=O)NC(=O)[C@H](CSCC)NC(=O)[C@H](CC(C)C)NC(=O)OCc1ccccc1 | 3000 M⁻¹ s⁻¹ | > 320 µM | 10 µM
29 | CCOC(=O)/C=C/[C@H](CCC(N)=O)NC(=O)[C@H](Cc1ccccc1)NC(=O)[C@H](CC(=O)O)NC(=O)OCc1ccccc1 | 35000 M⁻¹ s⁻¹ | > 320 µM | 2.4 µM
30 | CCOC(=O)/C=C/[C@H](CCC(=O)O)NC(=O)[C@H](Cc1ccccc1)NC(=O)[C@H](CC(C)C)NC(=O)OCc1ccccc1 | 500 M⁻¹ s⁻¹ | > 100 µM | 14 µM
31 | CCOC(=O)/C=C/[C@H](CCC(C)O)NC(=O)[C@H](Cc1ccccc1)NC(=O)[C@H](CC(C)C)NC(=O)OCc1ccccc1 (stereo partly specified) | 0 M⁻¹ s⁻¹ | > 100 µM | > 100 µM
32 | CCOC(=O)/C=C/[C@H](CCC(N)=O)NC(=O)[C@H](Cc1ccc(OCC)cc1)NC(=O)[C@H](CC(C)C)NC(=O)OCc1ccccc1 | 4200 M⁻¹ s⁻¹ | > 320 µM | > 320 µM
33 | CCOC(=O)/C=C/[C@H](CCC(N)=O)NC(=O)[C@H](Cc1ccccc1)NC(=O)CNC(=O)OCc1ccccc1 | 3800 M⁻¹ s⁻¹ | > 320 µM | 5.6 µM
34 | CCOC(=O)/C=C/[C@H](CCC(N)=O)NC(=O)[C@H](Cc1ccccc1)NC(=O)[C@@H](NC(=O)OCc1ccccc1)[C@H](C)SC(C)C | 40000 M⁻¹ s⁻¹ | > 100 µM | 10 µM
35 | CCOC(=O)/C=C/[C@H](CCC(N)=O)NC(=O)[C@H](Cc1ccccc1)NC(=O)[C@H](CC(C)C)NC(C)=O | 3700 M⁻¹ s⁻¹ | > 320 µM | 14 µM
36 | CCOC(=O)/C=C/[C@H](CO)NC(=O)[C@H](Cc1ccccc1)NC(=O)[C@H](CC(C)C)NC(=O)OCc1ccccc1 | 0 M⁻¹ s⁻¹ | 190 µM | > 190 µM
37 | CCOC(=O)/C=C/[C@H](CCC(N)=O)NC(=O)[C@H](CSC)NC(=O)[C@H](CC(C)C)NC(=O)OCc1ccccc1 | 2900 M⁻¹ s⁻¹ | > 320 µM | 8.9 µM
38 | CCOC(=O)/C=C/[C@H](CCC(N)=O)NC(=O)[C@H](Cc1ccccc1)NC(=O)[C@@H](NC(=O)OCc1ccccc1)C(C)(C)O | 98000 M⁻¹ s⁻¹ | > 100 µM | 0.66 µM
39 | CCOC(=O)/C=C/[C@H](CCC(N)=O)NC(=O)[C@H](CCC(=O)O)NC(=O)[C@H](CC(C)C)NC(=O)OCc1ccccc1 | 200 M⁻¹ s⁻¹ | > 320 µM | > 320 µM
40 | CCOC(=O)/C=C/[C@H](CCC(N)=O)NC(=O)[C@H](Cc1ccccc1)NC(=O)[C@H](CC(C)C)NC(=O)SC1CCCC1 | 114000 M⁻¹ s⁻¹ | > 100 µM | 0.18 µM
41 | CCOC(=O)/C=C/[C@H](CCC(C)=O)NC(=O)[C@H](Cc1ccccc1)NC(=O)[C@H](CC(C)C)NC(=O)OCc1ccccc1 | 1400 M⁻¹ s⁻¹ | > 100 µM | 1.6 µM
42 | CCOC(=O)/C=C/[C@H](CCC(N)=O)NC(=O)[C@H](Cc1ccccc1)NC(=O)[C@H](CC(C)C)NC(=O)OCc1ccncc1 | 12000 M⁻¹ s⁻¹ | > 320 µM | 56 µM
43 | CCOC(=O)/C=C/[C@H](COC(N)=O)NC(=O)[C@H](Cc1ccccc1)NC(=O)[C@H](CC(C)C)NC(=O)OCc1ccccc1 | 5600 M⁻¹ s⁻¹ | > 320 µM | 1.6 µM
44 | CCOC(=O)/C=C/[C@H](CCC(N)=O)NC(=O)[C@H](Cc1ccccc1)NC(=O)[C@H](CC(C)C)NC(=O)OC1CCCCC1 | 15500 M⁻¹ s⁻¹ | > 100 µM | 7.6 µM
45 | CCOC(=O)/C=C/[C@H](CCC(N)=O)NC(=O)[C@H](Cc1ccccc1)NC(=O)[C@H](CCC(=O)O)NC(=O)OCc1ccccc1 | 78900 M⁻¹ s⁻¹ | > 320 µM | 5.5 µM
46 | CCOC(=O)/C=C/[C@H](CCC(N)=O)NC(=O)[C@H](Cc1ccc(C)cc1)NC(=O)[C@@H](NC(=O)SC1CCCC1)C(C)(C)C | – | – | 0.056 µM
47 | CCOC(=O)/C=C/[C@H](CCC(N)=O)NC(=O)[C@H](Cc1ccccc1)NC(=O)[C@H](CC(C)C)NC(=O)OCc1ccccc1 | – | > 320 µM | 0.54 µM

From ChEMBL document CHEMBL1131037, “Structure-based design, synthesis, and biological evaluation of irreversible human rhinovirus 3C protease inhibitors. 2. Peptide structure-activity studies” (J Med Chem, 1998)
